Series [1] is described as follows: Drug recovery in human liver microsomes assessed as NADPH-fortified oxidative metabolism recovery in presence of arachidonic acid incubated for 30 mins. The class given is ADME, Microsome. To be noted: read-out: Drug recovery.
Series [2] addresses T1, CYP450 (20-HETE formation) (Homo sapiens, UniProt P04798+P05177+P05181+P08684+P10632+P10635+P11509+P11712+P13584+P20813+P20815+P20853+P24462+P24903+P33260+P33261+P51589+P78329+P98187+Q02928+Q08477+Q16678+Q16696+Q5TCH4+Q6VVX0+Q7Z449+Q8TAV3+Q96SQ9+Q9HB55). In words: Inhibition of CYP450 in human liver microsomes assessed as inhibition of 20-HETE formation in presence of arachidonic acid and NADPH by multi-enzyme assay based LC-MS/MS analysis. Conditions: probe arachidonic acid. The format is ADME, Microsome. For orientation: Liver microsomes are a subcellular fraction often used to study metabolism.

Series [3] can be described thus: Apparent permeability of the compound by PAMPA assay. The class given is ADME.
Series [4] can be described thus: Inhibition of CYP450 in Sprague-Dawley rat liver microsomes assessed as inhibition of 20-HETE formation in presence of arachidonic acid and NADPH by multi-enzyme assay based LC-MS/MS analysis relative to control. The class given is ADME, Microsome.
Series [5] can be described thus: Solubility of the compound in phospahte-buffered saline buffer at pH 7.4 by shake flask method. The class given is physicochemical. To be noted: phosphate-buffered saline.
A short description of series [6]: Inhibition of CYP450 in B6C3F1 mouse liver microsomes assessed as inhibition of 20-HETE formation in presence of arachidonic acid and NADPH by multi-enzyme assay based LC-MS/MS analysis. The class given is ADME, Microsome.
Series [7] deals with T1, CYP450 (20-HETE formation). In words: Inhibition of CYP450 in human HCT-116 cells assessed as 20-HETE formation in presence of arachidonic acid incubated for 15 mins by multi-enzyme assay based LC-MS/MS analysis relative to control. The class given is ADME, cell-based. Conditions: probe arachidonic acid.
The target of series [8] is T2, CYP4A11 (Homo sapiens, UniProt Q02928).
T2 sequence (Q02928 whole entry): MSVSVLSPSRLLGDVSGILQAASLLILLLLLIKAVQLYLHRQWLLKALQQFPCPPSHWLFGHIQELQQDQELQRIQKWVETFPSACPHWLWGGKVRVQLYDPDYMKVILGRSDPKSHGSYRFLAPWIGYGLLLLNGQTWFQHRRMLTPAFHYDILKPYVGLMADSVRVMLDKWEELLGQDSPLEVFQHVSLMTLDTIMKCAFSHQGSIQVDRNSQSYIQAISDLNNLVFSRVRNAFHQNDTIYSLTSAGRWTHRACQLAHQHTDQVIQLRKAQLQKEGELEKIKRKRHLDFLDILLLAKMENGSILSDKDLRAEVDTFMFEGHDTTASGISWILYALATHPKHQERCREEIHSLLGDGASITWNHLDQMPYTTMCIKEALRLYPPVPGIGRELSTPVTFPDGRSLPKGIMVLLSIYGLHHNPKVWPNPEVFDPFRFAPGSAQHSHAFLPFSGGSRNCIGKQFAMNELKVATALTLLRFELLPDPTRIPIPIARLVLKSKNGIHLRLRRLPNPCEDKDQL
In words: Inhibition of recombinant human CYP4A11 expressed in baculovirus-infected insect cells at 50 uM incubated for 15 mins in presence of arachidonic acid and NADPH by jump-dilution assay relative to control. The class given is ADME. To be noted: probe arachidonic acid.

In series [9] the target is T3, Cytochrome P450 4A11 (Homo sapiens, UniProt Q02928).
T3 sequence (Q02928 whole entry): T2 sequence (Q02928 whole entry)
In words: Inhibition of recombinant human CYP4A11 expressed in baculovirus-infected insect cells in presence of arachidonic acid and NADPH incubated for 15 mins by jump-dilution assay relative to control. The class given is ADME.

Series [10] is described as follows: Inhibition of CYP450 in B6C3F1 mouse liver microsomes assessed as inhibition of 20-HETE formation in presence of arachidonic acid and NADPH by multi-enzyme assay based LC-MS/MS analysis relative to control. The class given is ADME, Microsome.
A short description of series [11]: Inhibition of CYP450 in Sprague-Dawley rat liver microsomes assessed as inhibition of 20-HETE formation in presence of arachidonic acid and NADPH by multi-enzyme assay based LC-MS/MS analysis. The class given is ADME, Microsome.
Series [12] addresses T4, CYP2J2 (Homo sapiens, UniProt P51589).
T4 sequence (P51589 whole entry): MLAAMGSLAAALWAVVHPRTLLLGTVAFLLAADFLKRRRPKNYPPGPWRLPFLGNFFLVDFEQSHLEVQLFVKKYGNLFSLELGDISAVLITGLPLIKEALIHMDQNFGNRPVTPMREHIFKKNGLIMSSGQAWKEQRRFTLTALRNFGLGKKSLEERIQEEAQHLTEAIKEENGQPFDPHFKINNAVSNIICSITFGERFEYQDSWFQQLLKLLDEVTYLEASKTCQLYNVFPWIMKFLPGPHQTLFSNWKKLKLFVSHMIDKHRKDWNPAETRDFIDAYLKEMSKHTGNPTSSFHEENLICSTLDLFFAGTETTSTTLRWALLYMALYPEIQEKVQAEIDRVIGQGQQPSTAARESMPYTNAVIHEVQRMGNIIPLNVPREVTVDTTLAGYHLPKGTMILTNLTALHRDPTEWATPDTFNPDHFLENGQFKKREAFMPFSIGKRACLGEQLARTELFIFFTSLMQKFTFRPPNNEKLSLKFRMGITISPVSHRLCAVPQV
Kind of series: Inhibition of recombinant human CYP2J2 expressed in baculovirus-infected insect cells at 50 uM incubated for 15 mins in presence of arachidonic acid and NADPH by jump-dilution assay relative to control. The format is ADME. To be noted: probe arachidonic acid.

For series [13], the target named is T1, CYP450 (20-HETE formation). Kind of series: Inhibition of CYP450 in human liver microsomes assessed as inhibition of 20-HETE formation in presence of arachidonic acid and NADPH by multi-enzyme assay based LC-MS/MS analysis relative to control. The format is ADME, Microsome. To be noted: probe arachidonic acid.
A short description of series [14]: Plasma protein binding in human assessed as bound fraction by rapid equilibrium dialysis assay. The format is ADME, cell-free. To be noted: read-out: PPB.
For series [15], the target named is T5, Cytochrome P450 4F2 (Homo sapiens, UniProt P78329).
T5 sequence (P78329 whole entry): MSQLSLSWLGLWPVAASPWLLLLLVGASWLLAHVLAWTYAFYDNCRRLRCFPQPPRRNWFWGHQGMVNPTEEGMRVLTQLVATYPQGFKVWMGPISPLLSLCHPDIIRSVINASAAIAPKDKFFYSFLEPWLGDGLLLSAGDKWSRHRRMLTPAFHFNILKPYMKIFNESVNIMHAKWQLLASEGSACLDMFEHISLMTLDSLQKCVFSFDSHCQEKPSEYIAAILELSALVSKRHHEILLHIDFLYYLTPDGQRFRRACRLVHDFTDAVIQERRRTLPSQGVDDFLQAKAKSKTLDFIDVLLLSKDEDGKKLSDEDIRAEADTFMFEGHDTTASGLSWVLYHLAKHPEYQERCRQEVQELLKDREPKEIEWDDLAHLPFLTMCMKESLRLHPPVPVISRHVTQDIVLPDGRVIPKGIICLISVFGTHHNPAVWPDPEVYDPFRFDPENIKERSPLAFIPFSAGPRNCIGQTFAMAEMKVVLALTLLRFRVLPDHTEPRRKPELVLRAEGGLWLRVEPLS
In words: Inhibition of recombinant human CYP4F2 expressed in baculovirus-infected insect cells in presence of arachidonic acid and NADPH incubated for 15 mins by jump-dilution assay relative to control. The class given is ADME.

The target of series [16] is T1, CYP450 (20-HETE formation). Kind of series: Inhibition of CYP450 in human HCT-116 cells assessed as 20-HETE formation in presence of arachidonic acid incubated for 15 mins by multi-enzyme assay based LC-MS/MS analysis. The class given is ADME, cell-based. To be noted: probe arachidonic acid.

Structures are written as SMILES. pIC50: −log10 of the molar value. In brackets after ≈: the same amount, converted by molar mass.

A word on the pIC50: it is the negative decadic logarithm of the IC50, by convention in mol/L. In general, Papp refers to a coefficient for how fast a substance crosses the barrier. What is called solubility (thermodynamic) is solubility found after equilibrating the solid with the medium. In general, IC50 refers to the concentration at which inhibition is half-maximal. By inhibition is commonly meant the share of the control response that was lost under treatment.

For the compound `O=c1cc(-c2ccc(C(F)(F)F)cc2)oc2ccccc12`, the remaining at 0.5 h in series [1] came to 87%. Moreover, the pIC50 is 5.31 in series [2]; 5.85 in series [4]; 5.12 in series [6]; 4.30 in series [9]; 6.15 in [10]; 5.37 in [11]. The pIC50 in series [13] was 5.55; in [15] it was 6.12. For the same compound, the apparent permeability coefficient (Papp) in series [3] is 4.6 ×10⁻⁶ cm/s. Further, in series [5], the thermodynamic solubility stood at 3.4 µM (≈ 0.987 µg/mL). Further, the IC50 at 15 min in series [7] was determined as 1.9 µM; in series [16], 1.1 µM. For the same compound, the inhibition at 0.25 h, 50 µM in series [8] and in series [12] was below 25% in each case. Moreover, the fraction unbound in series [14] was below 0.05.

For the origin of these results see ChEMBL document CHEMBL5113402, “Inhibition of cytochrome P450 monooxygenase-catalyzed oxylipin formation by flavonoids: Evaluation of structure-activity relationship towards CYP4F2-selective inhibitors” (Eur J Med Chem, 2022).
